What was measured:
peptic ulcer disease = conditions: clinical evaluation, Gray et al., Lancet, 1, 8001 (1977); cited from earlier work
gastric acid secretion = test: Gastric antisecretory activity in the gastric fistula rat; assay type: in vivo, Long Evans rats; conditions: sc, relative to cimetidine
histamine H2-receptors = biological target: T1, histamine H2-receptors (Cavia porcellus, UniProt P47747); test: Histamine H2-receptor antagonism, isolated guinea pig right atria assay; assay type: cell-based, Hartley strain guinea pigs; conditions: for Kb: Schild plot, 30-minute incubation, 95% confidence limits in parentheses, read-out: KB (dissociation constant); for Potency Ratio (cimetidine = 1.0): relative to cimetidine
T1 construct: The spontaneously beating right atrium was dissected free from other tissues; from tissue; host or cells: isolated right atrium of male Hartley strain guinea pigs
Procedure: Subsequent investigations by Hughes and Coret, Proc. Soc. […] Black et al., Agents and Actions, 3, 133 (1973) and Brimblecombe et al., Fed. […] The present comparative studies were carried out using a modification of the procedure reported by Reinhardt et al., Agents and Actions, 4, 217 (1974).
The spontaneously beating right atrium was dissected free from other tissues and a silk thread (4-0) attached to each end. […] Atrial contractions were recorded isometrically by means of a Grass FT 0.03 force displacement transducer and recordings of contractile force and rate were made with a Beckman RP Dynograph.

T1 sequence (P47747 whole entry): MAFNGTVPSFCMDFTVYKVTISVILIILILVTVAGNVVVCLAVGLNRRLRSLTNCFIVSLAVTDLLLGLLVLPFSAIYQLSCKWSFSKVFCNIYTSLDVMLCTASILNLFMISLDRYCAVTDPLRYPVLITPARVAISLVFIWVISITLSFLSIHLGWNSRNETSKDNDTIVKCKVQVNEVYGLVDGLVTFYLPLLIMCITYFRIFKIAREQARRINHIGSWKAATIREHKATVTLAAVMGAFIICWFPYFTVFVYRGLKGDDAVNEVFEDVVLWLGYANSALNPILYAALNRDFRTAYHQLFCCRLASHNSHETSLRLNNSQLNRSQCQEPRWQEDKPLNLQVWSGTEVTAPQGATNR

CN/C(=N/CCSCc1nc[nH]c1C)NC#N [cimetidine]
effect in treatment of peptic ulcer disease (peptic ulcer disease): effective therapeutic agent in the treatment of peptic ulcer disease

Nc1nsnc1NCCCOc1cccc(CN2CCCC2)c1 [Example 4, 3-Amino-4-[3-(3-pyrrolidinomethylphenoxy)propylamino]-1,2,5-thiadiazole]
Potency Ratio (cimetidine = 1.0) (gastric acid secretion): 20
Kb (histamine H2-receptors): 4 nM
Potency Ratio (cimetidine = 1.0) (histamine H2-receptors): 102

CN(C)Cc1ccc(CSCCNc2nsnc2N)o1 [Example 2, 3-Amino-4-{2-[(5-dimethylaminomethyl-2-furyl)methylthio]ethylamino}-1,2,5-thiadiazole]
Potency Ratio (cimetidine = 1.0) (gastric acid secretion): 4.5

Cc1cc(CSCCNc2nsnc2N)sc1CN(C)C [Example 3, 3-Amino-4-{2-[(5-dimethylaminomethyl-4-methyl-2-thienyl)methylthio]ethylamino}-1,2,5-thiadiazole]
Potency Ratio (cimetidine = 1.0) (gastric acid secretion): ~ 7

Nc1nsnc1NCCCOc1cccc(CN2CCCCC2)c1 [Example 1, 3-Amino-4-[3-(3-piperidinomethylphenoxy)propylamino]-1,2,5-thiadiazole]
Potency Ratio (cimetidine = 1.0) (gastric acid secretion): 37
Kb (histamine H2-receptors): 3 nM
Potency Ratio (cimetidine = 1.0) (histamine H2-receptors): 137
